Test results published in patent US4645769A, “1-oxa-1-dethia-cephalosporin compounds and antibacterial agent comprising the same” (Merck & Co., Inc., priority 1985, dated 1987).
Values after ≈ are worked out from the molar mass of the structure shown. Where a name gives a salt, the structure may show the parent alone.

Tests used:
[1] = test system: Streptococcus faecalis ATCC 8043; assay: Minimum Inhibitory Concentration (MIC), antibacterial spectrum in vitro; assay type: cell-based; settings: Streptococcus faecalis ATCC 8043; for MIC: Enterococcus faecalis, ATCC8043, read-out: Minimum Inhibitory Concentration (MIC)
[2] = test system: Esherichia coli NIHJ JC-2; assay: as above; assay type: cell-based
[3] = test system: Pseudomonas aeruginosa E-2; assay: as above; assay type: cell-based; settings: Pseudomonas aeruginosa E-2; for MIC: E2, read-out: Minimum Inhibitory Concentration (MIC)
[4] = test system: Pseudomonas aeruginosa MB-3833; assay: as above; assay type: cell-based; settings: Pseudomonas aeruginosa MB-3833; for MIC: MB3833, read-out: Minimum Inhibitory Concentration (MIC)
Proteus morganii 1510 = assay: as above; assay type: cell-based; settings: Proteus morganii 1510; for MIC: Morganella morganii, read-out: Minimum Inhibitory Concentration (MIC)
[5] = test system: Klebsiella pneumoniae PCI 602; assay: as above; assay type: cell-based; settings: Klebsiella pneumoniae PCI 602; for MIC: PCI602, read-out: Minimum Inhibitory Concentration (MIC)
[6] = test system: Citrobacter freundii GN-346; assay: as above; assay type: cell-based; settings: Citrobacter freundii GN-346; for MIC: GN346, read-out: Minimum Inhibitory Concentration (MIC)
[7] = test system: Staphylococcus aureus 209 P JC-1; assay: as above; assay type: cell-based; settings: Staphylococcus aureus 209 P JC-1; for MIC: 209PJC1, read-out: Minimum Inhibitory Concentration (MIC)
[8] = test system: Salmonella typhimurium LT-2; assay: as above; assay type: cell-based; settings: Salmonella typhimurium LT-2; for MIC: Salmonella enterica, read-out: Minimum Inhibitory Concentration (MIC)
[9] = Concentration in Blood Serum after subcutaneous dosing (bioassay using Escherichia coli); assay type: in vivo; settings: mouse, sc, 25 mg/Kg subcutaneously, mice
Protocol: The concentration of the compound in the serum was determined by bioassay using Escherichia coli as assay microorganism.

Pseudomonas aeruginosa = assay: Antibacterial activity against Pseudomonas aeruginosa (from Table 1); assay type: cell-based; settings: in words
Streptococcus faecalis = assay: Antibacterial activity against Streptococcus faecalis (statement in words); assay type: cell-based

SMILES	MIC [1] [µg/mL]	MIC [2] [µg/mL]	MIC [3] [µg/mL]	MIC [4] [µg/mL]	MIC (Proteus morganii 1510) [µg/mL]	MIC [5] [µg/mL]	MIC [6] [µg/mL]	MIC [7] [µg/mL]	MIC [8] [µg/mL]	effectiveness against Pseudomonas aeruginosa (Pseudomonas aeruginosa)	other results
CCN1CCN(C(=O)NC(C(=O)NC2C(=O)N3C(C(=O)[O-])=C(CSc4cc[n+](C)cc4)COC23)c2csc(N)n2)C(=O)C1=O (racemic) [Compound 20, (6R,7R)-7-(DL-2-(2-Aminothiazole-4-yl)-2-(4-ethyl-2,3-dioxopiperazine-1-ylcarboxamide)acetamide)-3-(1-methylpyridinium-4-ylthiomethyl)-1-oxa-1-dethiaceph-3-em-4-carboxylate (Sodium Salt)]	> 100	0.1	25	100	6.25	0.2	25	0.39	0.2		
CCN1CCN(C(=O)NC(C(=O)NC2C(=O)N3C(C(=O)[O-])=C(CSc4cc[n+](CC(=O)O)cc4)COC23)c2csc(N)n2)C(=O)C1=O (racemic) [Compound 21, (6R,7R)-7-(DL-2-(2-Aminothiazole-4-yl)-2-(4-ethyl-2,3-dioxopiperazine-1-ylcarboxamide)acetamide)-3-(1-carboxymethylpyridinium-4-yl-thiomethyl)-1-oxa-1-dethiaceph-3-em-4-carboxylate (Sodium Salt)]	50	0.05	> 100	> 100	12.5	0.05	> 100	1.56	0.1		
CC1OC2C(NC(=O)C(=NOCC(=O)O)c3csc(N)n3)C(=O)N2C(C(=O)[O-])=C1CSc1cc[n+](CC(=O)O)cc1 [Compound 9, (6R,7R)-7-((Z)-2-(2-Aminothiazole-4-yl)-2-carboxymethoxyiminoacetamide)-(2S)-2-methyl-3-(1-carboxymethylpyridinium-4-ylthiomethyl)-1-oxa-1-dethiaceph-3-em-4-carboxylate (Sodium Salt)]	50	0.1	3.13	3.13	0.78	0.1	12.5	6.25	< 0.025	effective against Pseudomonas aeruginosa	concentration at 0.5 h ([9]; 1/2 hour): 25000 ng/mL; concentration at 0.25 h ([9]; 1/4 hour): 32000 ng/mL; concentration at 5 min ([9]; 1/12 hour): 36000 ng/mL; concentration at 1 h ([9]; 1 hour): 5100 ng/mL
CON=C(C(=O)NC1C(=O)N2C(C(=O)[O-])=C(CSc3cc[n+](CC(=O)O)cc3)COC12)c1csc(N)n1 [Compound 11, (6R,7R)-7-((Z)-2-(2-Aminothiazole-4-yl)-2-methoxyiminoacetamide)-3-(1-carboxymethylpyridinium-4-yl-thiomethyl)-1-oxa-1-dethiaceph-3-em-4-carboxylate (Sodium Salt)]	0.78	< 0.025	50	25	6.2	0.025	12.5	0.39	< 0.025		effectiveness against Streptococcus faecalis (Streptococcus faecalis): effective against Streptococcus faecalis
CC1OC2C(NC(=O)C(=NOC(C)(C)C(=O)O)c3csc(N)n3)C(=O)N2C(C(=O)[O-])=C1CSc1cc[n+](C(CF)CF)cc1 [Compound 17, (6R,7R)-7-((Z)-2-(2-Aminothiazole-4-yl)-2-(2-carboxyprop-2-oxyimino)acetamide)-(2S)-2-methyl-3-(1-(1,3-difluoroprop-2-yl)-pyridinium-4-ylthiomethyl)-1-oxa-1-dethiaceph-3-em-4-carboxylate (Sodium Salt)]	25	0.025	1.56	1.56	0.2	0.05	1.56	0.78	< 0.025		
CC[n+]1ccc(SCC2=C(C(=O)[O-])N3C(=O)C(NC(=O)C(=NOC(C)(C)C(=O)O)c4csc(N)n4)C3OC2C)cc1 [Compound 2, (6R,7R)-7-((Z)-2-(2-Aminothiazole-4-yl)-2-(2-carboxyprop-2-oxyimino)acetamide)-(2S)-2-methyl-3-(1-ethyl-pyridinium-4-ylthiomethyl)-1-oxa-1-dethiaceph-3-em-4-carboxylate (Sodium Salt)]	50	0.2	3.13	3.13	0.1	0.2	0.78	0.78	< 0.025	effective against Pseudomonas aeruginosa	
CC(C)(ON=C(C(=O)NC1C(=O)N2C(C(=O)[O-])=C(CSc3cc[n+](CCF)cc3)COC12)c1csc(N)n1)C(=O)O [Compound 15, (6R,7R)-7-((Z)-2-(2-Aminothiazole-4-yl)-2-2-carboxyprop-2-oxyimino)acetamide)-3-((2-fluoroethyl)pyridinium-4-ylthiomethyl)-1-oxa-1-dethiaceph-3-em-4-carboxylate]	50 (≈ 82.2 µM)	0.1 (≈ 0.164 µM)	3.13 (≈ 5.14 µM)	3.13 (≈ 5.14 µM)	6.25 (≈ 10.3 µM)	0.1 (≈ 0.164 µM)	50 (≈ 82.2 µM)	6.25 (≈ 10.3 µM)	0.5 (≈ 0.822 µM)	effective against Pseudomonas aeruginosa	
CC1OC2C(NC(=O)C(=NOC(C)(C)C(=O)O)c3csc(N)n3)C(=O)N2C(C(=O)[O-])=C1CSc1cc[n+](CC(F)(F)F)cc1 [Compound 4, (6R,7R)-7-((Z)-2-(2-Aminothiazole-4-yl)-2-(2-carboxyprop-2-oxyimino)acetamide)-(2S)-2-methyl-3-(1-(2,2,2-trifluoroethyl)pyridinium-4-ylthionethyl)-1-oxa-1-dethia-3-ceph-4-carboxylate (Sodium Salt)]	50	0.2	3.13	3.13	0.2	0.39	1.56	1.56	0.05	effective against Pseudomonas aeruginosa	
CC1OC2C(NC(=O)C(=NOC(C)(C)C(=O)O)c3csc(N)n3)C(=O)N2C(C(=O)[O-])=C1CSc1cc[n+](CCF)cc1 [Compound 3, (6R,7R)-7-((Z)-2-(2-Aminothiazole-4-yl)-2-(2-carboxyprop-2-oxyimino)acetamide)-(2S)-2-methyl-3-(1-(2-fluoroethyl)pyridinium-4-ylthiomethyl)-1-oxa-1-dethiaceph-3-em-4-carboxylate (Sodium Salt)]	25	0.2	1.56	1.56	0.2	0.2	0.78	0.78	< 0.025	effective against Pseudomonas aeruginosa	
CC1OC2C(NC(=O)C(=NOC(C)(C)C(=O)O)c3csc(N)n3)C(=O)N2C(C(=O)[O-])=C1CSc1cc[n+](CC(=O)O)cc1 [Compound 5, (6R,7R)-7-((Z)-2-(2-Aminothiazole-4-yl)-2-(2-carboxyprop-2-oxyimino)acetamide)-(2S)-2-methyl-3-(1-carboxymethylpyridinium-4-ylthiomethyl-1-oxa-1-dethiaceph-3-em-4-carboxylate (Sodium Salt)]	50	0.39	6.25	3.13	1.56	0.39	3.13	12.5	0.1		
CC1OC2C(NC(=O)C(=NOCC(=O)O)c3csc(N)n3)C(=O)N2C(C(=O)[O-])=C1CSc1cc[n+](CCF)cc1 [Compound 19, (6R,7R)-7-((Z)-2-(2-Aminothiazole-4-yl)-2-carboxymethoxyiminoacetamide)-(2S)-2-methyl-3-(1-(2-fluoroethyl)pyridinium-4-ylthiomethyl)-1-oxa-1-dethiaceph-3-em-4-carboxylate (Sodium Salt)]	> 100	0.78	3.13	3.13	0.2	0.39	1.56	3.13	0.1		
C[C@@H]1O[C@@H]2[C@@H](NC(=O)/C(=N\OCC(=O)[O-])c3csc(N)n3)C(=O)N2C(C(=O)[O-])=C1CSc1cc[n+](C)cc1.[Na+] [Compound 18, (6R,7R)-7-((Z)-2-(2-Aminothiazole-4-yl)-2-carboxymethoxyiminoacetamide)-(2S)-2-methyl-3-(1-methylpyridinium-4-ylthiomethyl)-1-oxa-1-dethiaceph-3-em-4-carboxylate (Sodium Salt)]											Minimum Inhibitory Concentration (MIC) [1]: 25 µg/mL; Minimum Inhibitory Concentration (MIC) [2]: 0.05 µg/mL; Minimum Inhibitory Concentration (MIC) [3]: 1.56 µg/mL; Minimum Inhibitory Concentration (MIC) [4]: 1.56 µg/mL; Minimum Inhibitory Concentration (MIC) (Proteus morganii 1510): 0.10 µg/mL; Minimum Inhibitory Concentration (MIC) [5]: 0.10 µg/mL; Minimum Inhibitory Concentration (MIC) [6]: 1.56 µg/mL; Minimum Inhibitory Concentration (MIC) [7]: 0.78 µg/mL; Minimum Inhibitory Concentration (MIC) [8]: < 0.025 µg/mL
